Reference: patent US20070135457A1, “Pyrido[2,3-d]pyrimidine-2,4-diamines as pde2 inhibitors” (Pfizer Inc., priority 2003, published 2007)
Read-outs that look alike come from different tables or passages of the source.

Key:
[1] = target: T1, PDE 2 enzyme isolated from human platelets (Homo sapiens, UniProt O00408); assay: PDE 2 enzyme scintillation proximity assay (SPA); type: biochemical
T1 construct: PDE 2 enzyme was isolated from human platelets; from tissue; host or cells: human platelets (pooled blood from multiple donors); HiTrap Q anion-exchange fraction eluting at about 325 mM NaCl
T1 sequence (O00408 whole entry): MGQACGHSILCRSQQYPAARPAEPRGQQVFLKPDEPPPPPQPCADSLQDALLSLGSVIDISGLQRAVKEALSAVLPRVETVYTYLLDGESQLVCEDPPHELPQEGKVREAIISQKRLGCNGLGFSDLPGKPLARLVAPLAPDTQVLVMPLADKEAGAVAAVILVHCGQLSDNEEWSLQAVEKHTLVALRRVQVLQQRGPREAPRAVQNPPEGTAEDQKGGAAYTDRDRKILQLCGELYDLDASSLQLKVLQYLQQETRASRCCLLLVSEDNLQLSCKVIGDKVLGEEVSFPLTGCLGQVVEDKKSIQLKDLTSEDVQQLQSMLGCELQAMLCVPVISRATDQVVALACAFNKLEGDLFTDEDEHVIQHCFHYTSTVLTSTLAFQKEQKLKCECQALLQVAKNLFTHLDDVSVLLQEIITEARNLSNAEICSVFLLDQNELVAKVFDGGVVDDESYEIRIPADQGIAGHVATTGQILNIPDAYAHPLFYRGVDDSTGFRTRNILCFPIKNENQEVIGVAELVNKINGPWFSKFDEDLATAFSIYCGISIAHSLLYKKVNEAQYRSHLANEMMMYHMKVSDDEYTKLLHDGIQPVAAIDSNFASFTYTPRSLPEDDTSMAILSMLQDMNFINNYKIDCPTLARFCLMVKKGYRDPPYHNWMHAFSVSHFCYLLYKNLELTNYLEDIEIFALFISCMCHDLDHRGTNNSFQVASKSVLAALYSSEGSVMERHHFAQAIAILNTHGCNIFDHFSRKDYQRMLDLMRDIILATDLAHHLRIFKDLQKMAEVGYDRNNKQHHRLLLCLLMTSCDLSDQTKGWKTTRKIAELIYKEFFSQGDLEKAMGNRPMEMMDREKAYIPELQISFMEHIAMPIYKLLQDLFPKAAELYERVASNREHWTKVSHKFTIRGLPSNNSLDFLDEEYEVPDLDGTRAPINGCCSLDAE
Description: PDE 2 enzyme was isolated from human platelets with approximately 1.4 L of blood from multiple donors used to make the platelet pellets. Platelets were resuspended in approximately 75 mL of lysis buffer [20 mM Tris pH 7.2, 5 mM MgCl2, 250 mM Sucrose, 1 mM DTT, 1 μL/2 mL Sigma Protease inhibitor #8340; Sigma-Aldrich; St. Louis, Mo.] and lysed by sonication at 4° C., with 3 rounds of 1 min bursts then spun at 4° C. overnight at 100,000×g. Cleared lysates were loaded to AKTA Explorer FPLC (Amersham Biosciences; Piscataway, N.J.) in a series of three chromatographic separations, with an average load volume of 25 mL. A 5 mL HiTrap Q anion exchange column (Amersham Biosciences) was used. […] Two major cGMP activity fractions (PDE 5 and PDE 2) were isolated and pooled separately. The PDE 2-pooled fraction total was approximately 40 mL which was dispensed in cryovials of 200 μl/vial and placed in storage at −80° C.
The inhibitory activity of the compounds of formula (I) on recombinant or isolated PDE 2, and other PDE's, was determined using the […] scintillation proximity assay (SPA) kits from Amersham International (Little Chalfont, England). The SPA assays were performed using 96 well plates. The PDE SPA yttrium silicate beads (Amersham Biosciences) bind preferentially to the linear nucleotide, GMP, compared to the cyclic nucleotide, cGMP. ^3H-cGMP was added to the reaction and when the product, ^3H-GMP, was in […] to the beads, the scintillant within the bead was excited, which was detected using a Packard scintillation counter (Perkin-Elmer Life Sciences; Boston, Mass.). The enzyme concentration used was in the linear range and the Km of the enzyme was determined (15 uM). The final substrate concentration was <1/3 of Km (1 μM) so that IC50 values would approximate the Ki values. The assay was validated using literature compounds as controls before testing compounds. Then, PDE catalytic activity measurements obtained in the presence of the test compound, and those obtained in the absence of the test compound, were compared and the lC50 value is determined. […]

[2] = test system: femur (periosteal bone induction); assay: Rat periosteal injection model; type: in vivo; conditions: daily local injection five times per week for two weeks; Day 15; male Sprague-Dawley rats
Description: Rats were anesthetized with isoflurane (2-3 min) in a conduction chamber located in a fume hood. The right hindlimb of each rat was shaved and cleaned. A 25 gauge needle attached to a syringe was pre-filled with a formulation of the test compound for local injection. The formulation was injected onto the subperiosteum of femur in a volume of 5-15 μL for 14 days. The rats were sacrificed after dosing, the femurs were collected, and then analyzed by radiography and dual-energy X-ray absorptiometry (DEXA).
The right femur of three-week old male Sprague-Dawley rats received a daily injection of vehicle or test compound five times per week for two weeks. On Day 15, all rats were sacrificed and the right femurs were collected for analysis. Periosteal bone induction was assessed using radiography and DEXA. […] The bone mineral content (BMC) of the injected region of the femur (area between lesser trochanter and mid-shaft of the femur) was assessed by DEXA comparing rats treated with test compound with those treated only with vehicle. In this model, N^4-(3,5-dimethoxy-benzyl)-N^2-(2-pyridin-4-yl-ethyl)-pyrido[2,3-d]pyrimidine-2,4-diamine, 2-(3-{3-[4-(3,4-dimethoxy-benzylamino)-pyrido[2,3-d]pyrimidin-2-ylamino]-propyl}-phenyl)-propan-2-ol, and N^4-(3,4-dimethoxy-benzyl)-N^2-(3-phenyl-propyl)-pyrido[2,3-d]pyrimidine-2,4-diamine increased BMC by 34%, 49%, and 33% respectively. Additionally, 9-(1-acetyl-4-phenyl-butyl)-2-(3,4-dimethoxy-benzyl)-1,9-dihydropurin-6-one increased BMC by 20% in the aforementioned model.

[3] = test system: fractured right femurs; assay: Rat transverse femoral fracture model; type: in vivo; conditions: single 5 mg dose injected percutaneously into fracture site; three weeks after injection; male rats
Description: Male Sprague-Dawley rats at 3 to 4 months of age were used. The animals were anesthetized with ketamine and xylazine at doses of 100 and 10 mg/kg, respectively. The right hindlimb of each rat was shaved and cleaned. A 1 cm incision was made just lateral to the patella and the femoral condyle was exposed. A Kirschner wire (0.045″ in diameter) was introduced into the intramedullary canal through the intercondylar portion to serve as an internal stabilization. The muscle incision was closed with vicryl and the skin incision was closed with stainless steel wound clips. The mid-diaphysis of the pinned femur was fractured by means of a three-point bending device driven by a dropped weight. The rats were permitted full weight-bearing and unrestricted activity after awakening from anesthesia. The test compounds were administered on various days after surgery by percutaneous injection onto the fracture site. The animals were sacrificed after treatment and the femurs were collected for analysis. Fracture healing was evaluated by using radiography, histological, and biomechanical test (F. Bonnarens, et al., Journal of Orthopaedic Research, 2, 97-101 (1984).
Three month-old male rats were subjected to transverse fracture of their right femurs under general anesthesia. […] Three weeks after the injections, the rats were sacrificed and the right femurs were harvested and analyzed. […]

[4] = SPA, 1 μM substrate, read-out: PDE 2 Inhibition

Structure (SMILES)	melting point [°C]	IC50 [1, 4] [nM]	bone mineral content (BMC) increase of injected region of femur by DEXA vs vehicle [2] [%]	Force-to-failure increased compared to placebo [3] [%]	stiffness increased compared to placebo [3] [%]	IC50 ([1]; PDE 2, read-out: IC50) [nM]
COc1ccc(CNc2nc(NCCCc3cccc(C(C)(C)O)c3)nc3ncccc23)cc1OC [Example 29, 2-(3-{3-[4-(3,4-Dimethoxy-benzylamino)-pyrido[2,3-d]pyrimidin-2-ylamino]-propyl}-phenyl)-propan-2-ol]	204 to 205	250 to 1000	49			
COc1cc(CNc2nc(NCCc3ccncc3)nc3ncccc23)cc(OC)c1 [Example 3, N^4-(3,5-Dimethoxy-benzyl)-N^2-(2-pyridin-4-yl-ethyl)-pyrido[2,3-d]pyrimidine-2,4-diamine]	234 to 235	250 to 1000	34			
COc1ccc(CNc2nc(NCCCc3ccccc3)nc3ncccc23)cc1OC [Example 32, N^4-(3,4-Dimethoxy-benzyl)-N^2-(3-phenyl-propyl)-pyrido[2,3-d]pyrimidine-2,4-diamine]	190 to 192	250 to 1000	33	19	62	
COc1cc(CNc2nc(NCCc3ccccn3)nc3ncccc23)cc(OC)c1 [Example 1, N^4-(3,5-Dimethoxy-benzyl)-N^2-(2-pyridin-2-yl-ethyl)-pyrido[2,3-d]pyrimidine-2,4-diamine]	157 to 158	50 to 250				
COc1ccc(Cc2nc3c(ncn3C(CCCc3ccccc3)C(C)=O)c(=O)[nH]2)cc1OC (stereo not shown) [9-(1-acetyl-4-phenyl-butyl)-2-(3,4-dimethoxy-benzyl)-1,9-dihydropurin-6-one, reference compound]			20			3
COc1cc(CNc2nc(NCCc3cccs3)nc3ncccc23)cc(OC)c1 [Example 10, N^4-(3,5-Dimethoxy-benzyl)-N^2-(2-thiophen-2-yl-ethyl)-pyrido[2,3-d]pyrimidine-2,4-diamine]	120 to 121	< 50				
COc1ccc(CNc2nc(NCCCc3ccc(C(C)=O)cc3)nc3ncccc23)cc1OC [Example 24, 1-(4-{3-[4-(3,4-Dimethoxy-benzylamino)-pyrido[2,3-d]pyrimidin-2-ylamino]-propyl}-phenyl)-ethanone]	184 to 185	250 to 1000				
COc1ccc(CNc2nc(NCc3ccccc3C(F)(F)F)nc3ncccc23)cc1OC [Example 20, N^4-(3,4-Dimethoxy-benzyl)-N^2-(2-trifluoromethyl-benzyl)-pyrido[2,3-d]pyrimidine-2,4-diamine]	227 to 228	250 to 1000				
COc1ccc(CNc2nc(NCCCc3ccc4ncsc4c3)nc3ncccc23)cc1OC [Example 27, N^2-3-(Benzothiazol-6-yl-propyl)-N^4-(3,4-dimethoxy-benzyl)-pyrido[2,3d]pyrimidine-2,4-diamine]	191 to 193	250 to 1000				
COc1cc(CNc2nc(NCc3cccnc3)nc3ncccc23)cc(OC)c1 [Example 4, N^4-(3,5-Dimethoxy-benzyl)-N^2-2-pyridin-3-ylmethyl-pyrido[2,3-d]pyrimidine-2,4-diamine]	222 to 223	250 to 1000				
